Consider 4 compounds from patent US20180213779A1, “PESTICIDALLY ACTIVE HETEROCYCLIC DERIVATIVES WITH SULPHUR CONTAINING SUBSTITUENTS” (SYNGENTA PARTICIPATIONS AG, priority 2015, published 2018).

Format in all cases: in vivo
Assay [1] deals with Spodoptera littoralis (Egyptian Cotton Leaf Worm). Nature of the assay: Example B4: Activity against Spodoptera littoralis (sprayed cotton leaf discs). The note with it: foliar, 72 h, application rate of 200 ppm, L1 larvae, 3 days after infestation. The method, then:
Example B4: Activity Against Spodoptera littoralis (Egyptian Cotton Leaf Worm)
Cotton leaf discs were placed on agar in 24-well microtiter plates and sprayed with aqueous test solutions prepared from 10′000 ppm DMSO stock solutions. After drying the leaf discs were infested with five L1 larvae. The samples were assessed for mortality, anti-feedant effect, and growth inhibition in comparison to untreated samples 3 days after infestation. Control of Spodoptera littoralis by a test sample is given when at least one of the categories mortality, anti-feedant effect, and growth inhibition is higher than the untreated sample.

In assay [2] the test system is Plutella xylostella (Diamond-Back Moth). Description: Example B3: Plutella xylostella larvicide, feeding/contact activity, preventative (artificial diet, 96-well). As to conditions: 216 h, application rate of 500 ppm, mortality assessed 9 days after treatment. On the procedure:
Example B3: Plutella xylostella (Diamond-Back Moth) larvicide, feeding/contact activity, preventative Artificial diet was dispensed into a 96-well microtiter plate and treated with aqueous test solutions prepared from 10′000 ppm DMSO stock solutions. Eggs were suspended above the treated diet and first instar larvae hatched onto the diet. Mortality was assessed 9 days after treatment.

For assay [3], the system named is Plutella xylostella (Diamond Back Moth). Description: Example B11: Activity against Plutella xylostella (artificial diet, 24-well, L2 larvae). As to conditions: 120 h, application rate of 200 ppm, 5 days after infestation, read-out: effect in at least one of the two categories (mortality or growth inhibition). The method, then: Example B11: Activity Against Plutella xylostella (Diamond Back Moth)
24-well microtiter plates with artificial diet were treated with aqueous test solutions prepared from 10′000 ppm DMSO stock solutions by pipetting. After drying, the plates were infested with L2 larvae (10 to 15 per well). The samples were assessed for mortality and growth inhibition in comparison to untreated samples 5 days after infestation.

The test system of assay [4] is Diabrotica balteata (Corn Root Worm). Nature of the assay: Example B6: Activity against Diabrotica balteata (sprayed maize sprouts). The note with it: 96 h, application rate of 200 ppm, L2 larvae, 4 days after infestation, read-out: effect in at least one of the two categories (mortality or growth inhibition). The method, then: Example B6: Activity Against Diabrotica Balteata (Corn Root Worm)
Maize sprouts placed onto an agar layer in 24-well microtiter plates were treated with aqueous test solutions prepared from 10′000 ppm DMSO stock solutions by spraying. After drying, the plates were infested with L2 larvae (6 to 10 per well). The samples were assessed for mortality and growth inhibition in comparison to untreated samples 4 days after infestation.

Assay [5] has as its system Tetranychus urticae (Two-Spotted Spider Mite). Description: Example B12: Activity against Tetranychus urticae (sprayed bean leaf discs). The note with it: foliar, 192 h, application rate of 200 ppm, mixed population (mobile stages), 8 days after infestation. The method, then:
Example B12: Activity Against Tetranychus urticae (Two-Spotted Spider Mite)
Bean leaf discs on agar in 24-well microtiter plates were sprayed with aqueous test solutions prepared from 10′000 ppm DMSO stock solutions. After drying the leaf discs were infested with a mite population of mixed ages. The samples were assessed for mortality on mixed population (mobile stages) 8 days after infestation.

Assay [6] relates to Myzus persicae (Green Peach Aphid). Description: Example B8: Activity against Myzus persicae (sprayed sunflower leaf discs). The note with it: foliar, 144 h, application rate of 200 ppm, mixed ages, 6 days after infestation. On the procedure: Example B8: Activity Against Myzus persicae (Green Peach Aphid)
Sunflower leaf discs were placed onto agar in a 24-well microtiter plate and sprayed with aqueous test solutions prepared from 10′000 ppm DMSO stock solutions. After drying, the leaf discs were infested with an aphid population of mixed ages. The samples were assessed for mortality 6 days after infestation.

The test system is the same in assay [7]. Description: Example B10: Activity against Myzus persicae (sucrose solution, Parafilm feeding). The note with it: 120 h, test rate of 12 ppm, 5 days after infestation. From the text:
Example B10: Activity Against Myzus persicae (Green Peach Aphid)
Test compounds prepared from 10′000 ppm DMSO stock solutions were applied by pipette into 24-well microtiter plates and mixed with sucrose solution. The plates were closed with a stretched Parafilm. A plastic stencil with 24 holes was placed onto the plate and infested pea seedlings were placed directly on the Parafilm. The infested plate was closed with a gel blotting paper and another plastic stencil and then turned upside down. The samples were assessed for mortality 5 days after infestation.

Assay [8] has the same test system. Description: Example B9: Activity against Myzus persicae (roots of pea seedlings in test solutions). As to conditions: 144 h, test rate of 24 ppm, mixed ages, 6 days after placing seedlings into test solutions. On the procedure: Example B9: Activity Against Myzus persicae (Green Peach Aphid)
Roots of pea seedlings infested with an aphid population of mixed ages were placed directly into aqueous test solutions prepared from 10′000 DMSO stock solutions. The samples were assessed for mortality 6 days after placing seedlings into test solutions.

The test system of assay [9] is Spodoptera littoralis (Egyptian Cotton Leaf Worm). Description: Example B5: Activity against Spodoptera littoralis (systemic, lettuce grown on treated agar). As to conditions: 144 h, test rate of 12.5 ppm, 6 days after infestation, uptake by lettuce roots, read-out: effect in at least one of the three categories (mortality, anti-feeding, or growth inhibition). An excerpt:
Example B5: Activity Against Spodoptera littoralis (Egyptian Cotton Leaf Worm)
Test compounds were applied by pipette from 10′000 ppm DMSO stock solutions into 24-well plates and mixed with agar. Lettuce seeds were placed onto the agar and the multi well plate was closed by another plate which contained also agar. After 7 days the compound was absorbed by the roots and the lettuce grew into the lid plate. The lettuce leaves were then cut off into the lid plate. Spodoptera eggs were pipetted through a plastic stencil onto a humid gel blotting paper and the lid plate was closed with it. The samples were assessed for mortality, anti-feedant effect and growth inhibition in comparison to untreated samples 6 days after infestation.

For assay [10], the system named is Euschistus heros (Neotropical Brown Stink Bug). Nature of the assay: Example B7: Activity against Euschistus heros (sprayed soybean leaves). The note with it: 120 h, application rate of 200 ppm, N2 nymphs, 5 days after infestation, read-out: effect in at least one of the two categories (mortality or growth inhibition). On the procedure: Example B7: Activity Against Euschistus heros (Neotropical Brown Stink Bug)
Soybean leaves on agar in 24-well microtiter plates were sprayed with aqueous test solutions prepared from 10′000 ppm DMSO stock solutions. After drying the leaves were infested with N2 nymphs. The samples were assessed for mortality and growth inhibition in comparison to untreated samples 5 days after infestation.

In general, pest or weed control refers to how far the test organism was held down. Lower therefore signals a weak effect. By mortality is commonly meant the percentage killed. A lower mortality goes with a weak lethal effect. Turning to `CCS(=O)(=O)c1cc(Br)cnc1-c1cn(-c2cccc(C(F)(F)F)c2)nn1` [Compound P12, 5-bromo-3-ethylsulfonyl-2-[1-[3-(trifluoromethyl)phenyl]triazol-4-yl]pyridine], the percent control (mortality, anti-feedant effect or growth inhibition) at 200 ppm in assay [1] is at least 80%. For the same compound, the pest or weed control at 500 ppm in assay [2] was at least 70%. For the same compound, the percent effect (mortality or growth inhibition) at 200 ppm in assay [3] is at least 80%. Besides, in assay [4], the effect (mortality or growth inhibition) at 200 ppm was at least 80%. The mortality at 200 ppm in assay [5] is at least 80%.
Consider `CCSc1cccnc1-c1cn(-c2cncc(C(F)(F)F)c2)nn1` [Compound P19], for which, in [6], the mortality at 200 ppm was at least 80%. Moreover, the pest or weed control at 500 ppm in assay [2] is at least 70%. Moreover, the mortality at 12 ppm in assay [7] is at least 80%. Besides, the effect (mortality or growth inhibition) at 200 ppm in assay [4] was at least 80%.
For the compound `CCS(=O)(=O)c1cccnc1-c1cn(-c2cncc(C(F)(F)F)c2)nn1` [Compound P20], the percent control (mortality, anti-feedant effect or growth inhibition) at 200 ppm in assay [1] is at least 80%. In assay [6], the mortality at 200 ppm was at least 80%. Also, the mortality at 24 ppm in assay [8] was at least 80%. Moreover, the percent effect (mortality, anti-feeding or growth inhibition) at 12.5 ppm in assay [9] is at least 80%. Moreover, the pest or weed control at 500 ppm in [2] is at least 70%. In addition, the percent effect (mortality or growth inhibition) at 200 ppm in assay [3] is at least 80%. The effect (mortality or growth inhibition) at 200 ppm in assay [4] was at least 80%.
With `CCS(=O)(=O)c1cccnc1-c1cn(-c2ccc(C(F)(F)F)nc2)nn1` [Compound P25], the percent effect (mortality or growth inhibition) at 200 ppm in assay [10] and in assay [3] was at least 80% each time. Also, the mortality at 24 ppm in [8] was at least 80%. The same compound displayed a pest or weed control at 500 ppm in assay [2] of at least 70%. In addition, in [4], the effect (mortality or growth inhibition) at 200 ppm is at least 80%.
